Laboratory results published in patent US9353082B2, “Pharmaceutical compounds” (BIAL—PORTELA & CA, S.A., priority 2008, dated 2016).

What was measured:
FAAH [1] = biological target: T1, FAAH (Mus musculus, UniProt O08914); experiment: In vivo FAAH inhibition after oral dosing, remaining activity in liver homogenate (LVh, peripheral tissue); parameters: species or system NMRI mice; details: liver homogenate; for In Vivo LVh 3 mg·kg 8 h (remaining FAAH activity, % of control): 8 h after dosing, low value = strong inhibitor
T1 construct: A fragment of liver, left lung lobe and brain without cerebellum were removed; from tissue; host or cells: male NMRI mice; brain (without cerebellum) and liver homogenates
T1 sequence (O08914 1-579): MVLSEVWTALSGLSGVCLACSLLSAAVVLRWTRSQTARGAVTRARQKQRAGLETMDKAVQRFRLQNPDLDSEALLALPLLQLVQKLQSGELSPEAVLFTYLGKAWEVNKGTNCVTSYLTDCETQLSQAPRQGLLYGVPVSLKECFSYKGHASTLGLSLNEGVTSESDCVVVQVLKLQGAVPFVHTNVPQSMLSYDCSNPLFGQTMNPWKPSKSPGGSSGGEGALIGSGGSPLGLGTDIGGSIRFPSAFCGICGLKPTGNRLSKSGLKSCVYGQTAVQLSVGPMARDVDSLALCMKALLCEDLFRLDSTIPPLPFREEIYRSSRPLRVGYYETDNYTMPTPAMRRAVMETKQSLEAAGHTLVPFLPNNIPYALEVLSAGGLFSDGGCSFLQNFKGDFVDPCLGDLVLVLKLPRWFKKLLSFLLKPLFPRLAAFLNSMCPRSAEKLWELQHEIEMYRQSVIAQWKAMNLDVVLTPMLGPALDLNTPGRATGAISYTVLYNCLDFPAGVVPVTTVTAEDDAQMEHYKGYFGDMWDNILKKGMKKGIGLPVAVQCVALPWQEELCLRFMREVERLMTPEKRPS
Outline: (§1)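 Remaining FAAH activity is given as % of vehicle-treated controls after blank subtraction, measured by radiolabelled AEA hydrolysis (2 μM AEA, 5 nM 3H-AEA, 37 °C) in brain (10 min) or liver (7 min) homogenates. These came from fasted male NMRI mice dosed orally at 30 or 3 mg/kg.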

FAAH [2] = biological target: T2, FAAH (Rattus norvegicus, UniProt P97612); experiment: In vitro FAAH activity in rat brain membranes, 3H-AEA substrate, % of control; assay type: biochemical, Wistar rats; details: low value = strong inhibitor; for In Vitro FAAH activity, 100 nM: 100 nM test compound; for In Vitro FAAH activity, 10 uM: 10 uM test compound; for In Vitro 100 nM (FAAH activity, % of control): rat brain membranes, compound at 100 nM
T2 construct: Frozen brains (without cerebellum) from Wistar rats were used; from tissue; host or cells: Wistar rat brain (without cerebellum), washed membrane pellets
T2 sequence (P97612 1-579): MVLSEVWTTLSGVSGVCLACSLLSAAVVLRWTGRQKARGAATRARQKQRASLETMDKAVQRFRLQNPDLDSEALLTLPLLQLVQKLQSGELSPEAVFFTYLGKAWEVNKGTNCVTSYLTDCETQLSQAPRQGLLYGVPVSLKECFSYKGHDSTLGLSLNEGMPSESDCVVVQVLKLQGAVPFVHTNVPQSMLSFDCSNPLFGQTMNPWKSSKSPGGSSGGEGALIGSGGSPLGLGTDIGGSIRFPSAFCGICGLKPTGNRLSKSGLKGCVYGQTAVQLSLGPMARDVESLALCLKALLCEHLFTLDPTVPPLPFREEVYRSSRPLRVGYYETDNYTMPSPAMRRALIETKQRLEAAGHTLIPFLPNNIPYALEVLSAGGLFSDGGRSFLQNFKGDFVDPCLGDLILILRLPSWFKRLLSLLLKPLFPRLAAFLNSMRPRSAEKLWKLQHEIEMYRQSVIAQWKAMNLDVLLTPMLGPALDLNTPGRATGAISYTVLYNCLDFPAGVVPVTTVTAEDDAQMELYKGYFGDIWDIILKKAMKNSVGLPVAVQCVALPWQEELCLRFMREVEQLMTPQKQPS
Outline: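 FAAH activity measured as 3H-ethanolamine released from 2 μM [3H]AEA over 10 min by rat brain membrane preparation, after 15 min 37 °C preincubation with test compound at 10 or 0.1 μM. Charcoal-separated supernatant scintillation-counted; values expressed as % of control minus no-protein blank.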

FAAH [3] = biological target: T1, FAAH; experiment: In vivo FAAH inhibition after oral dosing, remaining activity in brain homogenate (BRh, central nervous tissue); parameters: species or system NMRI mice; details: brain homogenate; for In Vivo BRh 3 mg·kg 8 h (remaining FAAH activity, % of control): 8 h after dosing, low value = strong inhibitor
Outline: as §1

Row | Structure (SMILES) | In Vivo LVh 3 mg/kg 8 h, remaining FAAH activity (FAAH [1]) | In Vitro FAAH activity, 100 nM (FAAH [2]) | In Vivo BRh 3 mg/kg 8 h, remaining FAAH activity (FAAH [3]) | In Vivo LVh 30 mg/kg 1 h, remaining FAAH activity (FAAH [1]) | In Vivo BRh 30 mg/kg 1 h, remaining FAAH activity (FAAH [3]) | In Vitro FAAH activity, 10 uM (FAAH [2]) | In Vivo LVh 3 mg·kg 8 h (remaining FAAH activity, % of control) (FAAH [1]) | In Vitro 100 nM (FAAH activity, % of control) (FAAH [2]) | In Vivo BRh 3 mg·kg 8 h (remaining FAAH activity, % of control) (FAAH [3])
1 | Cc1ccc(OC2CCN(C(=O)n3nnc4ccccc43)CC2)cc1 [Compound 99, (1H-benzo[d][1,2,3]triazol-1-yl)(4-(p-tolyloxy)piperidin-1-yl)methanone] | 71.4 % of control | 0.2 % of control | 99.1 % of control | – | – | – | – | – | –
2 | CN(C(=O)n1nnc2ccccc21)C1CCCCC1 [Compound 58, N-cyclohexyl-N-methyl-1H-benzo[d][1,2,3]triazole-1-carboxamide] | 0.3 % of control | 1 % of control | 0.5 % of control | 0.9 % of control | 0.3 % of control | – | – | – | –
3 | CN(Cc1ccccc1)C(=O)n1cnc(-c2ccc(F)cc2)c1 [Compound 150, N-benzyl-4-(4-fluorophenyl)-N-methyl-1H-imidazole-1-carboxamide] | 3.8 % of control | 1.2 % of control | 5.6 % of control | – | – | – | – | – | –
4 | O=C(N1CCC(CCCc2ccccc2)CC1)n1nnc2ccccc21 [Compound 110, (1H-benzo[d][1,2,3]triazol-1-yl)(4-(3-phenylpropyl)piperidin-1-yl)methanone] | 10.2 % of control | 0.1 % of control | 51.7 % of control | – | – | – | – | – | –
5 | CC1(C)COCN1C(=O)n1cnc(-c2ccc(Oc3ccc(C(N)=O)cc3)cc2)n1 [Compound 187, 4-(4-(1-(4,4-dimethyloxazolidine-3-carbonyl)-1H-1,2,4-triazol-3-yl)phenoxy)benzamide] | 108.6 % of control | 92.8 % of control | 85.6 % of control | – | – | – | – | – | –
6 | CN(C(=O)n1cnc(-c2cccc(O)c2)c1)c1ccccc1 [Compound 40, 4-(3-hydroxyphenyl)-N-methyl-N-phenyl-1H-imidazole-1-carboxamide] | 25.6 % of control | 88.8 % of control | 102.8 % of control | 4.5 % of control | 81.5 % of control | 0.1 % of control | – | – | –
7 | CN(C(=O)n1cnc(-c2cccc([N+](=O)[O-])c2)c1)C1CCCCC1 [Compound 275, N-cyclohexyl-N-methyl-4-(3-nitrophenyl)-1H-imidazole-1-carboxamide] | – | – | – | – | – | – | 2.4 % of control | 43.8 % of control | 12.8 % of control
8 | CN(C(=O)n1cnc(-c2cccc(-c3cccc(OC(F)(F)F)c3)c2)c1)C1CCCCC1 [Compound 248, N-cyclohexyl-N-methyl-4-(3′-(trifluoromethoxy)biphenyl-3-yl)-1H-imidazole-1-carboxamide] | 57 % of control | 68.9 % of control | 104.2 % of control | – | – | – | – | – | –
9 | O=C(NC1CCCCC1)n1nnc2ccccc21 [Compound 87, N-cyclohexyl-1H-benzo[d][1,2,3]triazole-1-carboxamide] | 4 % of control | 0 % of control | 3.4 % of control | – | – | – | – | – | –
10 | CN(C(=O)n1cnc(-c2ccc(OCCN3CCNCC3)cc2)c1)c1ccccc1.Cl.Cl [Compound 203, N-methyl-N-phenyl-4-(4-(2-(piperazin-1-yl)ethoxy)phenyl)-1H-imidazole-1-carboxamide dihydrochloride] | 64.3 % of control | 93.5 % of control | 101.8 % of control | – | – | – | – | – | –
11 | Cc1c(-c2ccccc2)ncn1C(=O)N(C)C1CCCCC1 [Compound 254, N-cyclohexyl-N,5-dimethyl-4-phenyl-1H-imidazole-1-carboxamide] | 89.9 % of control | 81 % of control | 98.3 % of control | – | – | 109 % of control | – | – | –
12 | COc1cc(-c2cn(C(=O)N3COCC3(C)C)cn2)ccc1F [Compound 351, (4,4-dimethyloxazolidin-3-yl)(4-(4-fluoro-3-methoxyphenyl)-1H-imidazol-1-yl)methanone] | – | – | – | – | – | – | 11.7 % of control | 95.6 % of control | 7.1 % of control
13 | CC1(C)COCN1C(=O)n1cnc(-c2cccc(-c3ccccc3)c2)c1 [Compound 231, (4-(biphenyl-3-yl)-1H-imidazol-1-yl)(4,4-dimethyloxazolidin-3-yl)methanone] | 3.6 % of control | 54.2 % of control | 3.9 % of control | – | – | – | – | – | –
14 | CC1(C)COCN1C(=O)n1cnc(-c2cccc(O)c2)c1 [Compound 347, (4,4-dimethyloxazolidin-3-yl)(4-(3-hydroxyphenyl)-1H-imidazol-1-yl)methanone] | – | – | – | – | – | – | 24.5 % of control | 109.6 % of control | 76.6 % of control
15 | CC1(C)COCN1C(=O)n1cnc(-c2cccc(-c3cccc(C(N)=O)c3)c2)c1 [Compound 232, 3′-(1-(4,4-dimethyloxazolidine-3-carbonyl)-1H-imidazol-4-yl)biphenyl-3-carboxamide] | 6.5 % of control | 84.7 % of control | 82.8 % of control | – | – | 0 % of control | – | – | –
16 | O=C(N1CCN(c2ccccc2)CC1)n1nnc2ccccc21 [Compound 41, (1H-benzo[d][1,2,3]triazol-1-yl)(4-phenylpiperazin-1-yl)methanone] | – | 0 % of control | – | 30 % of control | 87.6 % of control | 0 % of control | – | – | –
17 | Cl.O=C(N1CCN(Cc2ccccc2)CC1)n1cnc(-c2cccs2)n1 [Compound 158, (4-benzylpiperazin-1-yl)(3-(thiophen-2-yl)-1H-1,2,4-triazol-1-yl)methanone hydrochloride] | 85.6 % of control | 0.3 % of control | 92 % of control | – | – | – | – | – | –
